Laboratory results as given in PMC8911181, “A Novel CDK4/6 and PARP Dual Inhibitor ZC-22 Effectively Suppresses Tumor Growth and Improves the Response to Cisplatin Treatment in Breast and Ovarian Cancer” (International Journal of Molecular Sciences, 2022).

System: γH2A.X
Experiment: Immunofluorescence staining of γH2A.X foci
Format: cell-based, human
Conditions: MDA-MB-231 (2 μM) and OVCAR5 (0.5 μM) cells; 24 h
Experimental: Immunofluorescence-staining of γH2A.X was performed as described before. Briefly, cells were seeded on cover glasses in 24-well plates, cultured for 24–48 h, and then treated with cisplatin alone or together with Olaparib or ZC-22 for 24 h. After washing with PBS, cells were fixed by 4% PFA, permeated with 0.5% Triton-X100 in PBS, washed thrice with 0.1% PBS-Tween (PBST), blocked with 3% BSA in PBST, and then incubated with anti-γH2A.X antibody overnight at 4 °C. […] At least 150 cells in three fields were counted for each repeat.
Figure 3 ZC-22 inhibits CDK4/6 and PARP to induce cell-cycle arrest, DNA damage, and apoptosis in breast and ovarian cancer cells. […] The levels of CDK4/6 and p-Rb/Rb were determined by Western blot (A). Cell-cycle distribution was analyzed by flow cytometry (B). […] (D,E) Representative pictures (left) and quantification of percentage (right) of γH2A.X-positive cells in MDA-MB-231 cells treated with 2 μM OLA or ZC-22 for 24 h (D), or OVCAR5 cells treated with 0.5 μM OLA or ZC-22 for 24 h (E). Values are means ± SD, n = 3. * p < 0.05, ** p < 0.01, and *** p < 0.001 for comparisons with the DMSO-treated group. p value was calculated using an unpaired t-test. […] Values are means ± SD, n = 3. * p < 0.05, ** p < 0.01, and *** p < 0.001 vs. the DMSO-treated group. p value was calculated using an unpaired t-test. […]

Cc1nc2c(F)cc(-c3nc(Nc4ccc(N5CCN(C(=O)c6cc(Cc7n[nH]c(=O)c8ccccc78)ccc6F)CC5)cn4)ncc3F)cc2n1C(C)C [ZC-22, 4-(4-fluoro-3-(4-(6-((5-fluoro-4-(4-fluoro-1-isopropyl-2-methyl-1H-benzo[d]imidazole-6-yl)pyrimidin-2-yl)amino)pyridin-3-yl)piperazine-1-carbonyl)benzyl)phthalazin-1(2H)-one]
formation of γH2A.X foci: notably induced formation of γH2A.X foci
